# Values quoted from earlier work in patent US20230338587A1, “METHOD OF TREATING PSMA-EXPRESSING CANCERS” (ADVANCED ACCELERATOR APPLICATIONS INTERNATIONAL SA, priority 2020, published 2023).
substance,measurement,setting,value
XOMA 089: fully human monoclonal antibody that specifically binds and neutralizes TGF-beta 1 and 2 ligands,cross-reactivity with cynomolgus monkey TGF-β,cynomolgus monkey TGF-β,cross-reacts
same,cross-reactivity with rodent TGF-β,rodent TGF-β,cross-reacts
